Common to all, as to assay: inhibition of tumour cell growth, NCI panel, 48 h
Assay [1] deals with OVCAR-8 ovarian.
The subject of assay [2] is HT29 colon.
Assay [3] relates to HCT-15 colon.
For assay [4], the system named is SF-539 CNS.
For assay [5], the system named is SNB-75 CNS.
The test system of assay [6] is A498 renal.
The subject of assay [7] is OVCAR-3 ovarian.
For assay [8], the system named is IGROV1 ovarian.
In assay [9] the test system is SW-620 colon.
For assay [10], the system named is UO-31 renal.
For assay [11], the system named is NCI-H522 lung.
Assay [12] has as its system SK-MEL-28 melanoma.
The subject of assay [13] is NCI-H460 lung.
For assay [14], the system named is CCRF-CEM leukemia.
Assay [15] concerns SK-OV-3 ovarian.
Assay [16] relates to SK-MEL-2 melanoma.
In assay [17] the test system is KM12 colon.
Assay [18] concerns M14 melanoma.
Assay [19] has as its system NCI/ADR-RES ovarian.

Experimental findings from PubChem BioAssay (NCI) are described below.

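In this assay, cells in 96-well plates receive the compound at five concentrations for 48 hours. Endpoints are linearly interpolated between the surrounding concentrations. The concentration for 50% growth inhibition is given as GI50. TGI denotes the concentration required for complete inhibition of growth.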 *1 amine or outer side, *2 acyl side, *3 side chain or, on linkers, in order; H or OH if unused. Where a SMILES comes first, the peptide text is derived from it. Bridges are numbered along the chain shown (N, C = ends). [ ]: non-standard residue; d: D form. The star is where a group is joined. X34 = O=C(C(CCCCNO[*:3])N[*:1])[*:2]; Fmoc = O=C(OCC1c2ccccc2-c2ccccc21)*

In the case of `CN(C)c1snc2c1c(=O)n(C)c(=O)n2C`, the TGI in [1], in assay [2], in assay [3], in assay [4], in [5] and in assay [6] was > 100 µM throughout. Also, the TGI in assay [7], in [8], in [9], in assay [10], in assay [11] and in assay [12] was > 100 µM throughout. In addition, the TGI in assay [13], in assay [14], in assay [15] and in assay [16] was > 100 µM in each case.
Consider `COc1ccc(NC(=O)C(C)Oc2ccc(OCC3CCCCC3)cc2)cc1` (stereo not given), for which the TGI in assay [1], in [2], in assay [3], in assay [4], in [17] and in assay [5] was > 100 µM throughout. The TGI in assay [6], in [7], in assay [8], in assay [10], in assay [11] and in assay [12] was > 100 µM each time. Also, the TGI in assay [18], in assay [13], in assay [14], in assay [15] and in assay [16] was > 100 µM each time.
On to `O=C1NC(N2CCCCC2)=N/C1=C\c1ccc(Cl)cc1`, for which the TGI is 64.8 µM in assay [1]; 35.7 µM in [2]; > 100 µM in assay [3]; > 100 µM in [4]; > 100 µM in assay [17]; > 100 µM in [7]. The TGI in assay [8], in [9], in [10], in assay [11], in assay [19] and in assay [12] was > 100 µM in each case. Also, the TGI in assay [18], in assay [14], in assay [15] and in assay [16] was > 100 µM throughout.
Take `C=CCN1/C(=C2\SC(=S)N(c3ccc(C)cc3)C2=O)Sc2c1nc[nH]c2=O`: the TGI in assay [1], in assay [2], in [3], in assay [4], in assay [6] and in assay [7] was > 100 µM throughout. For the same molecule, the TGI in assay [8], in [9], in assay [10], in assay [11], in [12] and in [18] was > 100 µM each time. The TGI in assay [13], in [14], in assay [15] and in [16] was > 100 µM throughout.
In the case of `C#CCN(N=O)C(=O)NCCCCC(NC(C)=O)C(=O)NCc1ccccc1` (stereo not given), the TGI in [1], in assay [2], in [3], in assay [4], in assay [17] and in [5] was > 100 µM throughout. Further, the TGI in assay [6], in assay [7], in assay [8], in [9], in assay [10] and in assay [11] was > 100 µM each time. The TGI in [12], in assay [18], in assay [13], in assay [14] and in [15] was > 100 µM in each case.
`CC(=O)OCC(C)(COC(C)=O)N1C(=O)C2C3c4ccccc4C(c4ccccc43)C2C1=O` (stereo not given): the TGI in [1], in assay [2], in assay [3], in assay [4], in assay [17] and in assay [5] was > 100 µM throughout. For the same molecule, the TGI in assay [6], in [7], in assay [8], in assay [9], in [10] and in assay [18] was > 100 µM in each case. Besides, the TGI in assay [13], in assay [14] and in [15] was > 100 µM each time.
Take `NC(=O)CNC(=O)C1CCCN1C(=O)C1CCCCNOC(=O)CCC(NC(=O)OCC2c3ccccc3-c3ccccc32)C(=O)NC(Cc2c[nH]c3ccccc23)C(=O)N1` (stereo not given) (Fmoc-EW[X34]PG-NH2; ester 1-3; configuration not given here): the TGI in assay [1], in assay [2], in assay [3], in assay [4], in assay [17] and in [5] was > 100 µM in each case. For the same molecule, the TGI in assay [7], in assay [8], in [9], in assay [10], in assay [11] and in assay [19] was > 100 µM throughout. Also, the TGI in assay [12], in assay [18], in [13], in assay [14], in assay [15] and in assay [16] was > 100 µM throughout.
For the molecule `COc1ccc(/C(=C/n2ccnc2)C(O)c2ccc(OC)c(OC)c2)cc1OC` (stereo not given), the TGI in assay [1], in assay [2], in assay [3], in assay [4], in assay [17] and in assay [5] was > 100 µM in each case. The TGI in [6], in [7], in assay [8], in [9], in assay [10] and in assay [12] was > 100 µM each time. Moreover, the TGI in assay [18], in assay [13], in [14], in assay [15] and in assay [16] was > 100 µM in each case.
For the molecule `C=C1C(=O)OC2C3C(=C)[C@@H](OC(C)=O)CC3C(C)=CC(OC(=O)C(C)(OC(C)=O)C(C)OC(C)=O)[C@@H]12` (stereo not given in full), the TGI in [1] is > 100 µM; in assay [2] it was 27.5 µM; in assay [3], 25.7 µM; in assay [4], 33.5 µM; in assay [17] it was 33.4 µM; in assay [5] it was 37.1 µM. In addition, the TGI in assay [7] amounted to 26.7 µM; in assay [8] it was 37.7 µM; in [9], 21.9 µM; in assay [10], 30.8 µM; in assay [11], 11.4 µM; in [12] it was 29 µM. The TGI in [18] is 27.8 µM; in [13], 60.4 µM; in [14], 12.3 µM; in [15], > 100 µM; in assay [16] it was 27.4 µM.
`O=c1cc(-c2ccco2)[nH]c2cc3c(cc12)OCO3`: the TGI is > 100 µM in [2]; > 100 µM in assay [3]; 75.5 µM in assay [4]; 56.5 µM in assay [5]; > 100 µM in assay [6]; > 100 µM in assay [7]. Besides, the TGI in [8], in assay [9], in assay [10], in [12], in assay [13] and in [14] was > 100 µM each time. For the same molecule, the TGI in assay [16] was > 100 µM. Further, the GI50 in [7] is 42.9 µM.
In the case of `COC(=O)C(Br)C1CCc2ccccc21` (stereo not given), the TGI in assay [1], in assay [2], in assay [3], in [6], in assay [7] and in assay [8] was > 100 µM each time. Besides, the TGI in assay [9], in assay [10], in [12], in [18], in assay [13] and in assay [14] was > 100 µM in each case. Further, in assay [15], the TGI was > 100 µM.
As to `O=C1c2ccccc2C(=O)C1C(c1ccc(F)cc1)C1C(=O)c2ccccc2C1=O`, the TGI in assay [1], in assay [2], in assay [3], in assay [4], in assay [17] and in assay [5] was > 100 µM in each case. In addition, the TGI in assay [7], in assay [9], in [10], in assay [11], in assay [12] and in assay [18] was > 100 µM throughout. Further, the TGI in assay [13], in [14], in assay [15] and in assay [16] was > 100 µM each time.
For the molecule `CC(C)C[C@H](NC(=O)[C@H](Cc1ccc(F)cc1)NC(=O)c1ccccn1)B(O)O`, the TGI in [1], in [2], in [3], in assay [4], in assay [17] and in [5] was < 0.01 µM throughout. Besides, the TGI in assay [7] was < 0.01 µM; in assay [9] it was < 0.01 µM; in assay [10], < 0.01 µM; in [11] it was < 0.01 µM; in assay [19] it was 0.0212 µM; in assay [12], < 0.01 µM. The TGI in assay [18] is < 0.0107 µM; in [13] it was 0.0504 µM; in assay [14] it was > 100 µM; in assay [15], 1.07 µM; in assay [16], < 0.01 µM.
Turning to `Cn1c2ccccc2c(=O)c2cccc(C(=O)NCC(=O)O)c21`, the TGI in assay [1], in [2], in assay [3], in assay [4], in assay [17] and in assay [5] was > 100 µM each time. For the same molecule, the TGI in [7], in assay [8], in [9], in assay [10], in assay [19] and in [12] was > 100 µM each time. In addition, the TGI in [18], in [13], in assay [15] and in assay [16] was > 100 µM in each case.
Take `CCN(CC)c1ccc2nc3ccc(N=Nc4c(O)ccc5ccccc45)cc3[n+](-c3ccccc3)c2c1`: the TGI in assay [1], in assay [2], in [3], in assay [17], in assay [5] and in assay [7] was > 100 µM each time. Besides, the TGI in assay [8], in [9], in assay [10], in assay [11], in assay [19] and in assay [12] was > 100 µM throughout. The TGI in [18], in [14], in [15] and in [16] was > 100 µM in each case.
On to `CCOC(=O)c1c(C)n(C)c2c1cc(O)c1[nH]c3c(c12)CCCC3`, for which the TGI in [1] is 66.3 µM; in [2], 49.4 µM; in assay [3], > 100 µM; in [4] it was 37.9 µM; in assay [17], 37.3 µM; in [7] it was 25.1 µM. Besides, the TGI in assay [8] turned out to be 37.2 µM; in [9], 44.1 µM; in [10], 69.9 µM; in assay [11], 28.7 µM; in assay [19], 54 µM; in [12], 32.8 µM. Also, the TGI in assay [18] was 29.2 µM; in [13], 42.9 µM; in assay [14], 43.6 µM; in assay [15] it was > 100 µM; in assay [16], 37 µM.
Regarding `Cc1ccc2c(ccc(/C=C\c3cc(C)c4cccnc4c3O)[n+]2C)c1`, the TGI in assay [1] was 24.1 µM; in [4], 25.1 µM; in assay [17], 31.6 µM; in assay [6] it was 33.9 µM; in assay [7], 12.9 µM; in assay [8], > 100 µM. In addition, the TGI worked out at 30.1 µM in assay [9]; 66 µM in assay [10]; 27.8 µM in assay [11]; 25.5 µM in [18]; 18 µM in assay [13]; 26 µM in [14].
